Measured values: ChEMBL document CHEMBL4622903, “Repurposing of antipsychotics perphenazine for the treatment of endometrial cancer” (Bioorg Med Chem Lett, 2020)
Values belong to the compound of their own block, whether it stands above or below them. Calls of active or inactive are those of the source. No cut-off for these calls is given here.

What was measured:
KLE [1] = assay: Antimigratory activity against progesterone-resistant human KLE cells assessed as reduction in cell migration at 10 uM after 48 hrs by transwell assay; assay type: functional, cell-based
Ishikawa [2] = assay: Antimigratory activity against progesterone sensitive human Ishikawa cells assessed as inhibition of cell migration at 10 uM after 48 hrs by transwell assay; assay type: functional, cell-based
Ishikawa [3] = assay: Antiproliferative activity against human Ishikawa cells assessed as inhibition of cell viability by CCK8 assay; assay type: functional, cell-based
AN3-CA [4] = assay: Antiproliferative activity against human AN3CA cells assessed as inhibition of cell viability by CCK8 assay; assay type: functional, cell-based
KLE [5] = assay: Antiproliferative activity against human KLE cells assessed as inhibition of cell viability by CCK8 assay; assay type: functional, cell-based
HEC-1-A [6] = assay: Antiproliferative activity against human Hec1A cells assessed as inhibition of cell viability by CCK8 assay; assay type: functional, cell-based
Ishikawa [7] = assay: Inhibition of colony formation in progesterone sensitive human Ishikawa cells at 20 to 30 uM; assay type: functional, cell-based
HEC-1B cell line [8] = assay: Antiproliferative activity against human HEC1B cells assessed as inhibition of cell viability by CCK8 assay; assay type: functional, cell-based
Ishikawa [9] = assay: Antitumor activity against human Ishikawa cells xenografted in mouse assessed as tumor growth inhibition at 30 mg/kg measured after 28 days relative to control; assay type: functional; details: 672 h, read-out: GI
Ishikawa [10] = assay: Induction of apoptosis in progesterone-sensitive human Ishikawa cells assessed as late apoptotic cells at 20 uM after 48 hrs by Annexin-V/PI staining based flow cytometry (reference value: 3.56%); assay type: functional
KLE [11] = assay: Induction of apoptosis in progesterone-resistant human KLE cells assessed as early apoptotic cells at 20 uM after 48 hrs by Annexin-V/PI staining based flow cytometry (reference value: 2.85%); assay type: functional
Ishikawa [12] = assay: Antitumor activity against human Ishikawa cells xenografted in mouse assessed as tumor growth inhibition at 15 mg/kg measured after 28 days relative to control; assay type: functional; details: 672 h, read-out: GI
Ishikawa [13] = assay: Induction of apoptosis in progesterone-sensitive human Ishikawa cells assessed as early apoptotic cells at 10 uM after 48 hrs by Annexin-V/PI staining based flow cytometry (reference value: 1.92%); assay type: functional
KLE [14] = assay: Induction of apoptosis in progesterone-resistant human KLE cells assessed as early apoptotic cells at 10 uM after 48 hrs by Annexin-V/PI staining based flow cytometry (reference value: 2.85%); assay type: functional
KLE [15] = assay: Potency index, ratio of medroxyprogesterone acetate IC50 to test compound IC50 for antiproliferative activity against human KLE cells assessed as inhibition of cell viability by CCK8 assay; assay type: functional
[16] = target: RAC-alpha serine/threonine-protein kinase (Homo sapiens) (UniProt P31749); assay: Inhibition of AKT phosphorylation at ser 473 residue in human Ishikawa cells at 20 uM after 48 hrs by Western blot analysis; assay type: cell-based
Chain of RAC-alpha serine/threonine-protein kinase (Homo sapiens) (P31749 whole entry): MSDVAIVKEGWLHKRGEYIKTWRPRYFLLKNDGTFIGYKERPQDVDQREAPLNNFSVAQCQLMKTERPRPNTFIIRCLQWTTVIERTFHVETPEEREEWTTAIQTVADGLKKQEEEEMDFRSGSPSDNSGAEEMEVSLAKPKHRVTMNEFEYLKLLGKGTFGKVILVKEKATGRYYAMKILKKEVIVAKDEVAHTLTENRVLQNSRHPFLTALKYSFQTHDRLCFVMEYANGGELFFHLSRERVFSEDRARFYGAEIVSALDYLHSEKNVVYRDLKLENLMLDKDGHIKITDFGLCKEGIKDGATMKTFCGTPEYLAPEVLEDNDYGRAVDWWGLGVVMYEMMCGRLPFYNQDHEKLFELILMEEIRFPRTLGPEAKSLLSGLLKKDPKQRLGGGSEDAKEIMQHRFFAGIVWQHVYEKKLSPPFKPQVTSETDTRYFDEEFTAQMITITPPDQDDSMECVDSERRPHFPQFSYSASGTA

[17] = Toxicity in mouse xenografted with human Ishikawa cells assessed as effect on body weight at 3 to 15 mg/kg after 28 days; assay type: organism-based; details: in vivo, 672 h
Ishikawa [18] = assay: Induction of apoptosis in progesterone-sensitive human Ishikawa cells assessed as necrotic cells at 20 uM after 48 hrs by Annexin-V/PI staining based flow cytometry (reference value: 1.21%); assay type: functional
KLE [19] = assay: Induction of apoptosis in progesterone-resistant human KLE cells after 48 hrs by Annexin-V/PI staining based flow cytometry; assay type: functional, cell-based
HEC-1-A [20] = assay: Potency index, ratio of medroxyprogesterone acetate IC50 to test compound IC50 for antiproliferative activity against human Hec1A cells assessed as inhibition of cell viability by CCK8 assay; assay type: functional
AN3-CA [21] = assay: Potency index, ratio of medroxyprogesterone acetate IC50 to test compound IC50 for antiproliferative activity against human AN3CA cells assessed as inhibition of cell viability by CCK8 assay; assay type: functional
Ishikawa [22] = assay: Induction of apoptosis in progesterone-sensitive human Ishikawa cells after 48 hrs by Annexin-V/PI staining based flow cytometry; assay type: functional, cell-based
[23] = target: RAC-alpha serine/threonine-protein kinase (Homo sapiens) (UniProt P31749); assay: Inhibition of AKT phosphorylation at ser 473 residue in human KLE cells at 20 uM after 48 hrs by Western blot analysis; assay type: cell-based
Ishikawa [24] = assay: Induction of apoptosis in progesterone-sensitive human Ishikawa cells assessed as necrotic cells at 10 uM after 48 hrs by Annexin-V/PI staining based flow cytometry (reference value: 1.21%); assay type: functional
Ishikawa [25] = assay: Antitumor activity against human Ishikawa cells xenografted in mouse assessed as tumor growth inhibition at 3 mg/kg measured after 28 days relative to control; assay type: functional; details: 672 h, read-out: GI
Ishikawa [26] = assay: Inhibition of colony formation in progesterone sensitive human Ishikawa cells; assay type: functional, cell-based
KLE [27] = assay: Induction of apoptosis in progesterone-resistant human KLE cells assessed as late apoptotic cells at 10 uM after 48 hrs by Annexin-V/PI staining based flow cytometry (reference value: 3.56%); assay type: functional
Ishikawa [28] = assay: Induction of apoptosis in progesterone-sensitive human Ishikawa cells assessed as late apoptotic cells at 10 uM after 48 hrs by Annexin-V/PI staining based flow cytometry (reference value: 3.56%); assay type: functional
Ishikawa [29] = assay: Induction of apoptosis in progesterone-sensitive human Ishikawa cells assessed as early apoptotic cells at 20 uM after 48 hrs by Annexin-V/PI staining based flow cytometry (reference value: 1.92%); assay type: functional
KLE [30] = assay: Inhibition of colony formation in progesterone resistant human KLE cells; assay type: functional, cell-based
KLE [31] = assay: Induction of apoptosis in progesterone-resistant human KLE cells assessed as necrotic cells at 10 uM after 48 hrs by Annexin-V/PI staining based flow cytometry (reference value: 1.30%); assay type: functional
KLE [32] = assay: Induction of apoptosis in progesterone-resistant human KLE cells assessed as late apoptotic cells at 20 uM after 48 hrs by Annexin-V/PI staining based flow cytometry (reference value: 3.56%); assay type: functional
KLE [33] = assay: Induction of apoptosis in progesterone-resistant human KLE cells assessed as necrotic cells at 20 uM after 48 hrs by Annexin-V/PI staining based flow cytometry (reference value: 1.30%); assay type: functional
HEC-1B cell line [34] = assay: Potency index, ratio of medroxyprogesterone acetate IC50 to test compound IC50 for antiproliferative activity against human HEC1B cells assessed as inhibition of cell viability by CCK8 assay; assay type: functional
Ishikawa [35] = assay: Potency index, ratio of medroxyprogesterone acetate IC50 to test compound IC50 for antiproliferative activity against human Ishikawa cells assessed as inhibition of cell viability by CCK8 assay; assay type: functional

SMILES: CC(=O)O[C@]1(C(C)=O)CC[C@H]2[C@@H]3C[C@H](C)C4=CC(=O)CC[C@]4(C)[C@H]3CC[C@@]21C [MEDROXYPROGESTERONE ACETATE]
- Activity (KLE [1]): inactive
- inhibition (Ishikawa [2]): Active
- IC50 (Ishikawa [3]): 37 µM
- IC50 (AN3-CA [4]): 37.1 µM
- IC50 (KLE [5]): > 80 µM
- IC50 (HEC-1-A [6]): 51.8 µM
- inhibition (Ishikawa [7]): Active
- IC50 (HEC-1B cell line [8]): 60.4 µM
- inhibition in vivo at 30 mg/kg (Ishikawa [9]): 22.6%

- inhibition [16]: Active
- inhibition [23]: Active
SMILES: OCCN1CCN(CCCN2c3ccccc3Sc3ccc(Cl)cc32)CC1 [PERPHENAZINE]
- Activity (KLE [1]): Active
- Activity (Ishikawa [10]): 12.52%
- Activity (KLE [11]): 6.07%
- inhibition (Ishikawa [2]): Active
- IC50 (Ishikawa [3]): 19.4 µM
- inhibition in vivo at 15 mg/kg (Ishikawa [12]): 79.9%
- Activity (Ishikawa [13]): 6.9%
- Activity (KLE [14]): 4.33%
- IC50 (AN3-CA [4]): 25.4 µM
- Ratio IC50 (KLE [15]): >2.6
- Activity [17]: Non-Toxic
- Activity (Ishikawa [18]): 2.68%
- Activity (KLE [19]): Dose-dependent effect
- Ratio IC50 (HEC-1-A [20]): 2.2
- Ratio IC50 (AN3-CA [21]): 1.5
- Activity (Ishikawa [22]): Dose-dependent effect
- IC50 (KLE [5]): 30.8 µM
- IC50 (HEC-1-A [6]): 23.3 µM
- Activity (Ishikawa [24]): 2.64%
- IC50 (HEC-1B cell line [8]): 29.8 µM
- inhibition in vivo at 3 mg/kg (Ishikawa [25]): 58.1%
- inhibition (Ishikawa [26]): Dose-dependent effect
- Activity (KLE [27]): 7.88%
- Activity (Ishikawa [28]): 7.4%
- Activity (Ishikawa [29]): 6.76%
- inhibition (KLE [30]): Dose-dependent effect
- Activity (KLE [31]): 5.45%
- Activity (KLE [32]): 11.41%
- Activity (KLE [33]): 2.68%
- Ratio IC50 (HEC-1B cell line [34]): 2
- Ratio IC50 (Ishikawa [35]): 1.9
